Source: patent US9695155B2, “Herbicidal substituted pyrimidinyloxy benzene compounds” (E. I. DU PONT DE NEMOURS AND COMPANY, priority 2013, dated 2017)

Key:
ragweed [1] = assay: Test A preemergence; assay type: in vivo, Ambrosia elatior; conditions: for Plant response rating, Ragweed: 31 g ai/ha, 0 to 100 scale where 0 is no effect and 100 is complete control, visual, approximately 10 days; for Ragweed plant response rating (0 to 100 scale): 125 g ai/ha
How it was run: (§1)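 Injury scores run from 0, no effect, to 100, complete control, judged by eye against untreated plants roughly 10 days after treatment. Chemicals carried a surfactant in a non-phytotoxic solvent and went onto loam–sand soil preemergence or onto one- to two-leaf seedlings postemergence.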

galium = assay: Test A postemergence; assay type: in vivo, Galium aparine; conditions: 0 to 100 scale, 0 no effect, 100 complete control
How it was run: as §1

Italian ryegrass [2] = assay: Test A postemergence; assay type: in vivo, Lolium multiflorum; conditions: 0 to 100 scale, 0 no effect, 100 complete control
How it was run: as §1

giant foxtail [3] = assay: Test A preemergence; assay type: in vivo, Setaria faberii; conditions: for Plant response rating, Foxtail, Giant: 31 g ai/ha, 0 to 100 scale where 0 is no effect and 100 is complete control, visual, approximately 10 days; for Foxtail, Giant plant response rating (0 to 100 scale): 125 g ai/ha
How it was run: as §1

pigweed [4] = assay: Test A preemergence; assay type: in vivo, Amaranthus retroflexus; conditions: for Plant response rating, Pigweed: 31 g ai/ha, 0 to 100 scale where 0 is no effect and 100 is complete control, visual, approximately 10 days; for Pigweed plant response rating (0 to 100 scale): 125 g ai/ha
How it was run: as §1

wheat = assay: Test A postemergence; assay type: in vivo, Triticum aestivum; conditions: 0 to 100 scale, 0 no effect, 100 complete control
How it was run: as §1

barnyardgrass [5] = assay: Test A preemergence; assay type: in vivo, Echinochloa crus-galli; conditions: for Plant response rating, Barnyardgrass: 31 g ai/ha, 0 to 100 scale where 0 is no effect and 100 is complete control, visual, approximately 10 days; for Barnyardgrass plant response rating (0 to 100 scale, 0 is no effect, 100 is complete control): 125 g ai/ha
How it was run: as §1

giant foxtail [6] = assay: Test A postemergence; assay type: in vivo, Setaria faberii; conditions: 0 to 100 scale, 0 no effect, 100 complete control
How it was run: as §1

blackgrass = assay: Test A postemergence; assay type: in vivo, Alopecurus myosuroides; conditions: 0 to 100 scale, 0 no effect, 100 complete control
How it was run: as §1

corn = assay: Test A postemergence; assay type: in vivo, Zea mays; conditions: 0 to 100 scale, 0 no effect, 100 complete control
How it was run: as §1

Italian ryegrass [7] = assay: Test A preemergence; assay type: in vivo, Lolium multiflorum; conditions: for Plant response rating, Ryegrass, Italian: 31 g ai/ha, 0 to 100 scale where 0 is no effect and 100 is complete control, visual, approximately 10 days; for Ryegrass, Italian plant response rating (0 to 100 scale): 125 g ai/ha
How it was run: as §1

kochia [8] = assay: Test A postemergence; assay type: in vivo, Kochia scoparia; conditions: 0 to 100 scale, 0 no effect, 100 complete control
How it was run: as §1

sedge, umbrella = assay: Test B flooded paddy test; assay type: in vivo, Cyperus difformis; conditions: Flood, 250 g ai/ha; 0 to 100 scale where 0 is no effect and 100 is complete control
How it was run: (§2)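 Flooded to 3 cm at the 2-leaf stage, pots received compound through the paddy water and were kept at that depth under greenhouse conditions. After 13–15 days, effect was rated by eye relative to controls, 0 = none and 100 = complete control.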

pigweed [9] = assay: Test A postemergence; assay type: in vivo, Amaranthus retroflexus; conditions: 0 to 100 scale, 0 no effect, 100 complete control
How it was run: as §1

rice = assay: Test B flooded paddy test; assay type: in vivo, Oryza sativa; conditions: Flood, 250 g ai/ha; 0 to 100 scale where 0 is no effect and 100 is complete control
How it was run: as §2

ragweed [10] = assay: Test A postemergence; assay type: in vivo, Ambrosia elatior; conditions: 0 to 100 scale, 0 no effect, 100 complete control
How it was run: as §1

kochia [11] = assay: Test A preemergence; assay type: in vivo, Kochia scoparia; conditions: for Plant response rating, Kochia: 31 g ai/ha, 0 to 100 scale where 0 is no effect and 100 is complete control, visual, approximately 10 days; for Kochia plant response rating (0 to 100 scale): 125 g ai/ha
How it was run: as §1

Heteranthera limosa = assay: Test B flooded paddy test; assay type: in vivo; conditions: Flood, 250 g ai/ha; 0 to 100 scale where 0 is no effect and 100 is complete control
How it was run: as §2

barnyardgrass [12] = assay: Test B flooded paddy test; assay type: in vivo, Echinochloa crus-galli; conditions: Flood, 250 g ai/ha; 0 to 100 scale where 0 is no effect and 100 is complete control
How it was run: as §2

barnyardgrass [13] = assay: Test A postemergence; assay type: in vivo, Echinochloa crus-galli; conditions: 0 to 100 scale, 0 no effect, 100 complete control
How it was run: as §1

[14] = 1000 g ai/ha, 0 to 100 scale, 0 no effect, 100 complete control, approx. 10 days

SMILES | Plant response rating, Sedge, Umbrella (sedge, umbrella) | Plant response rating, Rice (rice) | Plant response rating, Ducksalad (Heteranthera limosa) | Plant response rating, Barnyardgrass (barnyardgrass [12]) | Plant response rating, Ragweed (ragweed [1]) | Ragweed plant response rating (0 to 100 scale) (ragweed [1]) | Plant response rating, Galium (galium; 31 g ai/ha) | Plant response rating, Galium (galium; 125 g ai/ha) | Plant response rating, Ryegrass, Italian (Italian ryegrass [2]; 31 g ai/ha) | Plant response rating, Ryegrass, Italian (Italian ryegrass [2]; 125 g ai/ha) | Plant response rating, Foxtail, Giant (giant foxtail [3]) | Foxtail, Giant plant response rating (0 to 100 scale) (giant foxtail [3]) | Plant response rating, Pigweed (pigweed [4]) | Pigweed plant response rating (0 to 100 scale) (pigweed [4]) | Plant response rating, Wheat (wheat; 31 g ai/ha) | Plant response rating, Wheat (wheat; 125 g ai/ha) | Plant response rating, Barnyardgrass (barnyardgrass [5]) | Barnyardgrass plant response rating (0 to 100 scale, 0 is no effect, 100 is complete control) (barnyardgrass [5]) | Plant response rating, Foxtail, Giant (giant foxtail [6]; 31 g ai/ha) | Plant response rating, Foxtail, Giant (giant foxtail [6]; 125 g ai/ha) | further results
COC(=O)c1cccc(Oc2ncc(Cl)cn2)c1-n1cc(C(F)(F)F)cn1 [Compound 248] | 70 | 15 | 50 | 0 |  |  |  |  |  |  |  |  |  |  |  |  |  |  |  |  | Ragweed plant response rating (ragweed [1]; [14]): 40; Plant response rating, Galium (galium; 1000 g ai/ha): 100; Plant response rating, Ryegrass, Italian (Italian ryegrass [2]; 1000 g ai/ha): 50; Foxtail, Giant plant response rating (giant foxtail [3]; [14]): 100; Pigweed plant response rating (pigweed [4]; [14]): 100; Plant response rating, Wheat (wheat; 1000 g ai/ha): 20; Barnyardgrass plant response rating (barnyardgrass [5]; [14]): 80; Plant response rating, Foxtail, Giant (giant foxtail [6]; 1000 g ai/ha): 100; Plant response rating, Blackgrass (blackgrass; 1000 g ai/ha): 30; Plant response rating, Corn (corn; 1000 g ai/ha): 80; Ryegrass, Italian plant response rating (Italian ryegrass [7]; [14]): 50; Plant response rating, Kochia (kochia [8]; 1000 g ai/ha): 90; Plant response rating, Pigweed (pigweed [9]; 1000 g ai/ha): 100; Plant response rating, Ragweed (ragweed [10]; 1000 g ai/ha): 50; Kochia plant response rating (kochia [11]; [14]): 100; Plant response rating, Barnyardgrass (barnyardgrass [13]; 1000 g ai/ha): 70
CC(C)Oc1cnn(-c2c(C#N)cccc2Oc2ncc(Br)cn2)c1 [Compound 254] | 60 | 0 | 65 | 0 | 0 | 0 | 20 | 100 | 0 | 20 | 30 | 90 | 30 | 90 | 0 | 30 | 20 | 80 | 10 | 60 | Plant response rating, Blackgrass (blackgrass; 31 g ai/ha): 0; Plant response rating, Blackgrass (blackgrass; 125 g ai/ha): 60; Plant response rating, Corn (corn; 31 g ai/ha): 10; Plant response rating, Corn (corn; 125 g ai/ha): 20; Plant response rating, Ryegrass, Italian (Italian ryegrass [7]): 0; Ryegrass, Italian plant response rating (0 to 100 scale) (Italian ryegrass [7]): 40; Plant response rating, Kochia (kochia [8]; 31 g ai/ha): 20; Plant response rating, Kochia (kochia [8]; 125 g ai/ha): 60; Plant response rating, Pigweed (pigweed [9]; 31 g ai/ha): 10; Plant response rating, Pigweed (pigweed [9]; 125 g ai/ha): 30; Plant response rating, Ragweed (ragweed [10]; 31 g ai/ha): 10; Plant response rating, Ragweed (ragweed [10]; 125 g ai/ha): 20; Plant response rating, Kochia (kochia [11]): 20; Kochia plant response rating (0 to 100 scale) (kochia [11]): 80; Plant response rating, Barnyardgrass (barnyardgrass [13]; 31 g ai/ha): 10; Plant response rating, Barnyardgrass (barnyardgrass [13]; 125 g ai/ha): 60
FC(F)c1cccc(Oc2ncc(Cl)cn2)c1-n1cncc1Br [Compound 259] | 75 | 0 | 70 | 0 | 10 | 70 | 70 | 80 | 0 | 10 | 30 | 100 | 70 | 100 | 0 | 0 | 10 | 70 | 10 | 40 | Plant response rating, Blackgrass (blackgrass; 31 g ai/ha): 20; Plant response rating, Blackgrass (blackgrass; 125 g ai/ha): 50; Plant response rating, Corn (corn; 31 g ai/ha): 0; Plant response rating, Corn (corn; 125 g ai/ha): 10; Plant response rating, Ryegrass, Italian (Italian ryegrass [7]): 0; Ryegrass, Italian plant response rating (0 to 100 scale) (Italian ryegrass [7]): 0; Plant response rating, Kochia (kochia [8]; 31 g ai/ha): 60; Plant response rating, Kochia (kochia [8]; 125 g ai/ha): 80; Plant response rating, Pigweed (pigweed [9]; 31 g ai/ha): 70; Plant response rating, Pigweed (pigweed [9]; 125 g ai/ha): 90; Plant response rating, Ragweed (ragweed [10]; 31 g ai/ha): 50; Plant response rating, Ragweed (ragweed [10]; 125 g ai/ha): 70; Plant response rating, Kochia (kochia [11]): 20; Kochia plant response rating (0 to 100 scale) (kochia [11]): 80; Plant response rating, Barnyardgrass (barnyardgrass [13]; 31 g ai/ha): 0; Plant response rating, Barnyardgrass (barnyardgrass [13]; 125 g ai/ha): 30
N#Cc1cccc(Oc2ncc(Cl)cn2)c1-n1ccnc1 [Compound 261] | 0 | 0 | 0 | 0 | 0 | 0 | 30 | 50 | 0 | 0 | 0 | 0 | 0 | 0 | 0 | 0 | 0 | 0 | 0 | 10 | Plant response rating, Blackgrass (blackgrass; 31 g ai/ha): 0; Plant response rating, Blackgrass (blackgrass; 125 g ai/ha): 0; Plant response rating, Corn (corn; 31 g ai/ha): 0; Plant response rating, Corn (corn; 125 g ai/ha): 0; Plant response rating, Ryegrass, Italian (Italian ryegrass [7]): 0; Ryegrass, Italian plant response rating (0 to 100 scale) (Italian ryegrass [7]): 0; Plant response rating, Kochia (kochia [8]; 31 g ai/ha): 50; Plant response rating, Kochia (kochia [8]; 125 g ai/ha): 70; Plant response rating, Pigweed (pigweed [9]; 31 g ai/ha): 30; Plant response rating, Pigweed (pigweed [9]; 125 g ai/ha): 60; Plant response rating, Ragweed (ragweed [10]; 31 g ai/ha): 20; Plant response rating, Ragweed (ragweed [10]; 125 g ai/ha): 30; Plant response rating, Kochia (kochia [11]): 0; Kochia plant response rating (0 to 100 scale) (kochia [11]): 0; Plant response rating, Barnyardgrass (barnyardgrass [13]; 31 g ai/ha): 0; Plant response rating, Barnyardgrass (barnyardgrass [13]; 125 g ai/ha): 0
Cc1cc(C)n(-c2ccccc2Oc2ncc(Cl)cn2)n1 [Compound 264] | 0 | 0 | 0 | 0 | 0 | 0 | 0 | 0 | 0 | 0 | 0 | 0 | 0 | 0 | 0 | 0 | 0 | 0 | 0 | 0 | Plant response rating, Blackgrass (blackgrass; 31 g ai/ha): 0; Plant response rating, Blackgrass (blackgrass; 125 g ai/ha): 0; Plant response rating, Corn (corn; 31 g ai/ha): 0; Plant response rating, Corn (corn; 125 g ai/ha): 0; Plant response rating, Ryegrass, Italian (Italian ryegrass [7]): 0; Ryegrass, Italian plant response rating (0 to 100 scale) (Italian ryegrass [7]): 0; Plant response rating, Kochia (kochia [8]; 31 g ai/ha): 0; Plant response rating, Kochia (kochia [8]; 125 g ai/ha): 0; Plant response rating, Pigweed (pigweed [9]; 31 g ai/ha): 0; Plant response rating, Pigweed (pigweed [9]; 125 g ai/ha): 0; Plant response rating, Ragweed (ragweed [10]; 31 g ai/ha): 0; Plant response rating, Ragweed (ragweed [10]; 125 g ai/ha): 0; Plant response rating, Kochia (kochia [11]): 0; Kochia plant response rating (0 to 100 scale) (kochia [11]): 0; Plant response rating, Barnyardgrass (barnyardgrass [13]; 31 g ai/ha): 0; Plant response rating, Barnyardgrass (barnyardgrass [13]; 125 g ai/ha): 0
